Peptide text beside a SMILES is read from it.
How the values were obtained:
EF43-fgf4-derived tumors = assay: Experimental therapy of EF43-fgf4-derived tumors; format: in vivo, Balb/c mice
Method: For experimental therapy, Balb/c mice bearing EF43-fgf4-derived tumors were established and tumor volumes determined as described (Deroanne et al., 1997; Hajitou et al., 2001). Treatments in tumor-bearing mice were started 5 (peptides) to 7 days (antibodies) after cell inoculation (10^5 cells/mouse). Reagents were administered by ip and sc routes.
Tumor-bearing mice received vehicle, [sequence] (SEQ ID NO:2) or control peptides and tumors were monitored (FIG. 7B).
The inventors used an established regimen of two anti-APA monoclonal antibodies (ASD-37/41) with synergistic APA inhibitory properties (Assmann et al., 1992, Mentzel et al., 1999) on the same animal model. Tumor-bearing mice received vehicle, ASD-37/41, or isotype control IgG and tumors were monitored (FIG. 7C).

[1] = tested on: VEGF-induced CAM neovascularization; assay: Chick embryo chorioallantoic membrane (CAM) assay; format: in vivo, chicken
Method: Fertilized chicken eggs were incubated in constant humidity at 37° C. for 3 days. Two to three ml of albumin was removed through a square opening to detach the developing CAM. The opening was sealed with a glass plate and the eggs were incubated for 5 days. […] […] CAMs were examined daily until day 12, photographed in ovo with a stereomicroscope and emerging capillaries were counted (Ribatti et al., 1997).
In this in vivo model, neovascularization is stimulated with VEGF adsorbed on to a gelatin sponge placed on the CAM. […] CAMs were examined on E12 and neovascularization was quantified by counting the number of emerging capillaries (FIG. 4B). Significant induction of neovascularization (57.0±1.41 blood vessels) was found when a sponge with VEGF was placed on the CAM compared to a sponge with no growth factors (12.0±2.8 blood vessels; t-test, P<0.01). […]

HMECs [2] = assay: Chemotaxic (Boyden chamber) cell migration assay; format: cell-based, human
Method: Cell migration assays were performed in a 48-well Boyden chamber (NeuroProbe; Gaithersburg, Md.) as described (Bussolino et al., 1995). Indicated concentrations of […] (SEQ ID NO:2) peptide or negative control peptide (1 mM) were placed in the lower chamber compartment in complete M199 medium. Subconfluent HMECs were harvested and 1×10^5 cells were seeded in the upper chamber compartment in complete M199 medium. Cells were allowed to migrate for 5 h at 37° C. in a humidified 5% CO2 atmosphere. Filter was removed and cells on the upper side were scraped off. Migrated cells were fixed and Giemsa-stained.
(§1) Because of the enzymatic inhibitory activity of APA-binding peptides, the inventors reasoned that they might affect endothelial cell function. The inventors correlated the effect of APA inhibition by the […] (SEQ ID NO:2) peptide on the migration and proliferation of endothelial cells. The inventors used human dermal microvascular endothelial cells (HMEC) in which the APA expression was verified by immunostaining with RC38 and the APA activity by its specific enzyme assay. […] (SEQ ID NO:2) peptide suppressed the migration of HMECs in the Boyden chamber assay (FIG. 3B). Suppression in cell migration was dose-dependent and commensurate with inhibition of APA enzymatic activity. […] Similarly, proliferation of HMECs was suppressed by […] (SEQ ID NO:2) (˜40% at 1 mM) in a dose-dependent manner (FIG. 3C).

HMECs [3] = assay: Endothelial cell growth assay (crystal violet); format: cell-based, human
Method: HMECs were seeded (˜10,000 cells/well) and allowed to attach for 24 hours in complete M199 medium (Sigma; St. Louis, Mo.). The indicated concentrations of […] (SEQ ID NO:2) or 1 mM negative control peptide were added to the cells in complete M199 medium. HMECs were then serially fixed in 2.5% glutaraldehyde, stained with 0.1% crystal violet in 20% methanol, and solubilized in 10% acetic acid. Cell growth was evaluated by measuring absorbance at 590 nm. A calibration curve with linear correlation between absorbance and cell number (103-105 HMECs) was used for the assay.
as §1

aminopeptidase N = aminopeptidase N (Homo sapiens, UniProt P15144); assay: Aminopeptidase N enzymatic activity; format: biochemical
HMECs [4] = assay: Three-dimensional cell culture on Matrigel (cord/tube formation); format: cell-based, human
Method: Matrigel (BD Biosciences; Bedford, Mass.) was added to 48-well tissue culture plates and allowed to solidify at 37° C. HMECs (˜10^4 cells) were added to the wells and allowed to adhere to the Matrigel for 30 minutes at 37° C. Cell medium was replaced containing the indicated concentrations of […] (SEQ ID NO:2) or a negative control peptide (both at 1 mM) in complete medium. Plates were examined and photographed after 16 hours.
To determine whether inhibition of APA enzyme activity with […] (SEQ ID NO:2) peptide would affect angiogenesis, the effect of the peptide was tested in vitro and in vivo. First, the inventors evaluated the ability of HMECs to differentiate into capillary-like structures characteristic of angiogenesis in the presence of […] (SEQ ID NO:2) on a gel of reconstituted basement membrane matrix (Matrigel). The formation of cord/tube-like structures was progressively impaired by increasing concentrations of […] (SEQ ID NO:2) peptide, relative to the network formation in controls without peptide (FIG. 4A, upper left panel) or with an unrelated control peptide at 1 mM concentration (FIG. 4A, upper right panel). The number and length of capillary-like branching structures was reduced at 0.3 mM […] […]

[5] = target: T1, APA-transfected SK-RC-49 cells (Homo sapiens, UniProt Q07075); assay: Cell surface panning of CX3CX3CX3C phage display library on APA-transfected cells; format: binding; conditions: for Round 2 (%) - share of randomly selected phage clones displaying the sequence: after second round of panning on SK-RC-49/APA cells
T1 construct: stably transfected with a mammalian expression vector encoding the full-length APA cDNA; expressed in transfected cells; host or cells: SK-RC-49 renal carcinoma cells (SK-RC-49/APA)
Method: Briefly, 10^10 transducing units (TU) of a CX3CX3CX3C (SEQ ID NO:14; C, cysteine; X, any amino acid residue) phage display random library are pre-absorbed on SK-RC-49 parental cells. The pre-cleared CX3CX3CX3C phage library (˜10^10 TU) is added to 106 detached APA-transfected SK-RC-49 cells in binding medium (20 mM HEPES, 2% FCS in DMEM). Cell panning was performed at 4° C. to minimize post-binding events such as receptor-mediated internalization (Giordano et al., 2001). Cells were washed with binding medium and cell bound phage were recovered and amplified by infection of K91Kan E. coli. Serial dilutions were plated on Luria-Bertani (LB) agar plates with tetracycline and kanamycin. The number of TU was determined by bacterial colony counting.
The inventors pre adsorbed 1010 transducing units (TU) of a CX3CX3CX3C (C, cysteine; X, any amino acid residue; SEQ ID NO:14) phage display random library on SK-RC-49 parental cells. Next, the pre-cleared CX3CX3CX3C (SEQ ID NO:14) phage library (˜1010 TU) was added to 106 detached APA-transfected SK-RC-49 cells in binding medium (20 mM HEPES, 2% FCS in DMEM). Cell panning was performed at 4° C. to minimize post-binding events such as receptor-mediated internalization (Giordano et al., 2001). Cells were washed with binding medium and cell bound phage were recovered and amplified by infection of K91 Kan E. coli. Serial dilutions were plated on Luria-Bertani (LB) agar plates with tetracycline and kanamycin. The number of TU was determined by bacterial colony counting.
To identify peptides capable of binding to APA, the inventors screened APA-transfected cells with a phage display library (Smith and Scott, 1993). The inventors stably transfected SK-RC-49 renal carcinoma cells with a vector expressing full-length APA cDNA. APA functionality was verified in transfected cells by an enzyme activity assay specific for APA.

SK-RC-49/APA cells = target: T2, SK-RC-49/APA cells (Homo sapiens, UniProt Q07075); assay: Phage binding assay on SK-RC-49/APA cells versus SK-RC-49 cells; conditions: for Phage binding to SK-RC-49/APA cells relative to SK-RC-49 cells: individual phage clones
T2 construct: stably transfected with a mammalian expression vector encoding the full-length APA cDNA; expressed in transfected cells; host or cells: SK-RC-49 renal carcinoma cells (SK-RC-49/APA)
Method: Binding assays were performed on cells with 109 TU phage input. Increasing concentrations of synthetic […] (SEQ ID NO:2) or control peptides were used to evaluate competitive inhibition of phage binding. APA was immunocaptured on microtiter wells with RC38 and incubated with 109 TU of phage in 3% BSA in PBS. Wells were washed with 1% BSA, 0.01% Tween-20 in PBS and phage were recovered by infection of K91kan E. coli. Serial dilutions were plated on LB agar plates containing tetracycline and kanamycin. The number of TU was determined by bacterial colony counting.
Phage displaying enriched peptide motifs were tested individually for APA binding. Phage displaying the inserts […] (SEQ ID NO:3), […] (SEQ ID NO:1) or […] The inventors synthesized peptides containing APA-binding motifs (consensus sequence […] (SEQ ID NO:2); Table 1). Binding of phage displaying […] Binding of […] Whether the selected peptides would bind to the isolated APA protein was also evaluated. […] The inventors used phage displaying […] (SEQ ID NO:3), […] (SEQ ID NO:4), or […] (SEQ ID NO:1) in binding assays to the immunocaptured APA.

[6] = tested on: MDA-MB-435 human breast carcinoma-derived tumor xenografts; assay: Tumor homing of phage in vivo; parameters: species or system nude mice; conditions: intravenous
Method: Nude mice bearing tumor xenografts derived from MDA-MB-435 human breast cancer cells were generated as described (Arap et al., 1998). 109 TU of […] (SEQ ID NO:8)-displaying phage or fd-tet phage were injected intravenously to anesthetized mice. Phage were allowed to circulate for 5 minutes and the animals were perfused through the left ventricle of the heart with DMEM. The tumor and control organs were dissected and equal amounts of tissue were homogenized. Homogenates were washed with ice-cold DMEM containing a protease inhibitor cocktail (Sigma; St. Louis, Mo.) and 0.1% BSA. Tissue-bound phage were recovered as described above the cell panning. Tissue samples from the injected animals were fixed, sectioned at 5 μm and stained with an anti-M13 antibody.
The inventors next evaluated the ability of APA binding peptides to home to tumor blood vessels in vivo. Phage were administered intravenously to nude mice bearing human breast carcinoma MDA-MB-435-derived xenografts. Phage homing was quantified by recovery from tissue homogenates by bacterial infection. […] […] Homing of […] (SEQ ID NO:3) phage to tumor vasculature was confirmed by immunohistochemical staining of phage on tissue sections.

[7] = 1 mM peptide in VEGF-adsorbed sponge, E12
[8] = competition with synthetic peptide
[9] = negative control peptide (1 mM)

T2 sequence (Q07075 whole entry): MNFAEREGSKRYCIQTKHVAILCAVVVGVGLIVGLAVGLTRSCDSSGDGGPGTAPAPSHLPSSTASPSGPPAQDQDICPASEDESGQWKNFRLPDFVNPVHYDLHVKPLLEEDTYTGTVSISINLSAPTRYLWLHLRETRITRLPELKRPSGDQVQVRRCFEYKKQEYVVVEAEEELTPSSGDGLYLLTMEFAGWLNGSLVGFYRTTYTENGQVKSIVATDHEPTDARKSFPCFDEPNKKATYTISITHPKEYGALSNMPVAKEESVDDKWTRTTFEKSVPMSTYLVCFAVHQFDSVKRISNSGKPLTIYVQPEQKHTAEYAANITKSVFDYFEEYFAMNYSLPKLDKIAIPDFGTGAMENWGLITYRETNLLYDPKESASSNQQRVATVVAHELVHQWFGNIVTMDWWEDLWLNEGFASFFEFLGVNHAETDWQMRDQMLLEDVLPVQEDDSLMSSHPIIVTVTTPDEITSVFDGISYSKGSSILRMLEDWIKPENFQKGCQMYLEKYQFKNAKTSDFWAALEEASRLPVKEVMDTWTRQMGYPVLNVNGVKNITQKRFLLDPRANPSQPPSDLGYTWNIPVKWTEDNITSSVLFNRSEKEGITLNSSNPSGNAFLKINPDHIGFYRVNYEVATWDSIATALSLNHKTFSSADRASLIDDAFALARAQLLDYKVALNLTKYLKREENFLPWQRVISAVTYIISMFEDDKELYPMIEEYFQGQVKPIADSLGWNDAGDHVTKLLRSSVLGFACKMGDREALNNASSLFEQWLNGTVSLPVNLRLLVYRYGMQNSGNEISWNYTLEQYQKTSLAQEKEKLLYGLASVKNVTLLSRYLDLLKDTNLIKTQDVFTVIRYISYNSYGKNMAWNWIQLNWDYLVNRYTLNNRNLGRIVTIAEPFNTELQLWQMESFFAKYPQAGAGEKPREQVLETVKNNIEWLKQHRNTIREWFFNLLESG
T1 sequence (Q07075 whole entry): as above
Chain of aminopeptidase N (P15144 whole entry, species assumed): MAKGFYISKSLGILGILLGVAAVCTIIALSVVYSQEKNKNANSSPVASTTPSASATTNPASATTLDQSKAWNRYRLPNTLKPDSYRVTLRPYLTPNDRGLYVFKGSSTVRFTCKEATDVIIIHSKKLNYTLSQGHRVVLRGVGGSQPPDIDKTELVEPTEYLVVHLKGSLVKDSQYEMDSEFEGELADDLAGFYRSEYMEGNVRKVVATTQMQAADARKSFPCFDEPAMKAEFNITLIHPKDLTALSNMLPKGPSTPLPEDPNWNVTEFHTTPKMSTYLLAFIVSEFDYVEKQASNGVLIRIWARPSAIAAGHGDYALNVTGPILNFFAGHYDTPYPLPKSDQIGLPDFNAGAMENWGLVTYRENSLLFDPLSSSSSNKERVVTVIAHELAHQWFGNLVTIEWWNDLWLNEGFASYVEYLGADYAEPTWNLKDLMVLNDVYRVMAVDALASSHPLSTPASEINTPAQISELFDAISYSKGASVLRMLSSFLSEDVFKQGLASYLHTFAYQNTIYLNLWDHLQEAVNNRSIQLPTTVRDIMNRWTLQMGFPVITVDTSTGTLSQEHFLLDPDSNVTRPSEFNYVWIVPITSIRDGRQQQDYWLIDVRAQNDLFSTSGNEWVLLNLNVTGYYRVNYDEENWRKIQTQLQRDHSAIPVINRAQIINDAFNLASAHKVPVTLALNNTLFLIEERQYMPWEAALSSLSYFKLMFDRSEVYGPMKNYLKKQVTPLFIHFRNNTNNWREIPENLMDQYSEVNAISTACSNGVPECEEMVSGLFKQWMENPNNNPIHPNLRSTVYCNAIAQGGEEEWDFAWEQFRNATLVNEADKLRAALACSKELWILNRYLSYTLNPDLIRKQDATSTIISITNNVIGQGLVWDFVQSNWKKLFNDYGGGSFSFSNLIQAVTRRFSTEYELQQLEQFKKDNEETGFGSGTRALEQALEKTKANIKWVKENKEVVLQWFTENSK

CC[C@H](C)[C@H](NC(=O)[C@H](CO)NC(=O)[C@H](CCC(=O)O)NC(=O)[C@H](CS)NC(=O)[C@H](CCC(=O)O)NC(=O)[C@H](CCCNC(=N)N)NC(=O)[C@@H]1CCCN1C(=O)[C@@H](N)CS)C(=O)N[C@@H](CS)C(=O)O (H-CPRECESIC-OH)
Tumor volume (EF43-fgf4-derived tumors; peptides 250 μg/mouse/dose, end of two weeks): 1,366±190 mm^3 | Effect on number or branching of the growing blood vessels ([1]; 0.1 mM and 0.3 mM peptide): did not affect | Inhibition of VEGF-induced CAM neovascularization [1, 7]: 40% | Number of emerging capillaries [1, 7]: 35.5±1.4 blood vessels | Inhibition of cell migration (HMECs [2]; 100 μM peptide): significant inhibition | Suppression in cell migration (HMECs [2]; 1 mM peptide, 5 h): Up to 60% | Inhibition of cell proliferation (HMECs [3]; 0.3 mM peptide): Inhibition of cell proliferation was also observed | Suppression of proliferation of HMECs (HMECs [3]; 1 mM peptide): ~40% | Effect on cell proliferation (HMECs [3]; peptide concentrations lower than 0.3 mM): no significant effect | Effect on enzymatic activity of aminopeptidase N (aminopeptidase N): did not affect | Number and length of capillary-like branching structures (HMECs [4]; 0.3 mM peptide): reduced | Cell interconnections and capillary network organization (HMECs [4]; 1 mM peptide): severely lost

CAVACWADCQLGC
Round 2 (%) - share of randomly selected phage clones displaying the sequence [5]: 5%

CGTGCAVECEVVC
Round 2 (%) - share of randomly selected phage clones displaying the sequence [5]: 5%

CLGQCASICVNDC
Round 2 (%) - share of randomly selected phage clones displaying the sequence [5]: 5% | Effect of synthetic […] peptide on phage binding to SK-RC-49/APA cells (SK-RC-49/APA cells; [8]): not affected by the synthetic peptide | Phage binding to SK-RC-49/APA cells relative to SK-RC-49 cells (SK-RC-49/APA cells): preferentially bound to SK-RC-49/APA cells

CPKVCPRECESNC (phage-displayed)
Round 2 (%) - share of randomly selected phage clones displaying the sequence [5]: 5% | Effect of synthetic […] peptide on phage binding to SK-RC-49/APA cells (SK-RC-49/APA cells; [8]): inhibited by the synthetic peptide | Phage binding to SK-RC-49/APA cells relative to SK-RC-49 cells (SK-RC-49/APA cells): preferentially bound to SK-RC-49/APA cells | Phage homing by recovery from tissue homogenates ([6]; tumor versus control organs (brain)): enriched in tumors compared to control organs | Phage homing by immunohistochemical staining of tissue sections ([6]; tumor versus normal brain blood vessels): Strong phage staining was observed in tumor blood vessels

CPRECESN
Efficacy in vivo (EF43-fgf4-derived tumors; mouse, in vivo): showed efficacy in vivo

CSGLCTVQCLEGC (phage-displayed)
Round 2 (%) - share of randomly selected phage clones displaying the sequence [5]: 5%

CSMMCLEGCDDWC (phage-displayed)
Round 2 (%) - share of randomly selected phage clones displaying the sequence [5]: 5%

CYNLCIRECESICGADGACWTWCADGCSRSC (phage-displayed)
Round 2 (%) - share of randomly selected phage clones displaying the sequence [5]: 50% | Round 3 (%) - share of randomly selected phage clones displaying the sequence ([5]; after third round of panning on SK-RC-49/APA cells): 100% | Effect of synthetic CPRECESIC peptide on phage binding to SK-RC-49/APA cells (SK-RC-49/APA cells; [8]): inhibited by the synthetic peptide | Phage binding to SK-RC-49/APA cells relative to SK-RC-49 cells (SK-RC-49/APA cells): preferentially bound to SK-RC-49/APA cells

GACVRLSACGA [negative control peptide, unrelated synthetic peptide used as a negative control unless otherwise indicated, reference compound]
Number of emerging capillaries [1, 7]: 56.5±2.12 blood vessels | Effect on cell migration (HMECs [2]; [9]): affected neither cell migration nor proliferation | Effect on cell proliferation (HMECs [3]; [9]): affected neither cell migration nor proliferation

From US7914780B1, “Aminopeptidase A (APA) targeting peptides for the treatment of cancer” (Board of Regents, the University of Texas System, priority 2000, dated 2011)
